Test results reported in patent US6890954B1, “Uses of 2-bromopalmitate in the treatment of autoimmune disease” (priority 1999, dated 2005).

Experiments:
Format in all cases: cell-based
[1] = tested on: GAP43(10)-Fyn; assay: Membrane binding of GAP43(10)-Fyn chimera in COS-1 cells; details: COS-1, 2-bromopalmitate overnight, 2 hours label
Procedure: (§1) For analysis of newly synthesized Fyn, cells were cultured overnight as descibed above, then starved for 1 hr in DMEM minus methionine and cysteine containing 2% dialyzed FBS, 0.5% defatted BSA with or without 100 μM 2-bromopalmitate. Cells were labeled for 5 minutes with Trans^35S-Label (ICN, Irvine, Calif.), then fractionated as described above. Gels were treated for 20 minutes with 1M salicylic acid prior to drying. The Gαo(10)-Fyn chimera was labeled for 5 min and GAP-43 Fyn chimera was labeled for 2 hours and fractionated according to the above conditions.
(§2) Each of these three sequences was appended onto the Fyn protein. Gαo(10)-Fyn and GAP43(10)-Fyn are chimeric constructs with the first 10 amino acids of Gαo or GAP-43, respectively, in place of the first 10 amino acids of wt Fyn. These constructs have been previously described (12,13). In addition, the H-Ras tail was fused to the C-terminus of a non-acylated Fyn mutant (G2A,C3SFyn-HRas). This construct contains full length Fyn with mutations in the N-terminal myristoylation and palmitoylation sites, but with the C-terminus of H-Ras available for prenylation and palmitoylation.

[2] = tested on: LAT; assay: CD3-mediated tyrosine phosphorylation of LAT in Jurkat cells; details: 100 μM 3 hours, OKT3
Procedure: (§3) Jurkat T cells (2×10^6−1×10^7) were centrifuged at 1,000×g for 5 minutes, rinsed with RPMI, resuspended in RPMI supplemented with 2% dialyzed FBS, 0.5% defatted BSA, and incubated with or without 100 μM 2-bromopalmitate at 8×10^5 cells/ml for 3 hours. The cells were centrifuged, washed with RPMI and resuspended in RPMI at 1×10^7−1×10^8 cells/ml. The cells were then activated with anti-CD3 OKT3 mAb (0.3 mg/ml) for 3 min at 37° C., quickly spun down, washed once with cold RPMI and once with cold STE, and lysed in RIPA Samples were solubilized in 1× sample buffer containing 5% β-mercaptoethanol and subjected to SDS-PAGE, followed by immunoblotting with anti-phosphotyrosine antibody (PY99). For analysis of specific proteins, RIPA lysates were immunoprecipitated with the specific antibodies O/N, and immunoblotted for phosphotyrosine. Alternatively, proteins were immunoprecipitated with agarose-conjugated anti phosphotyrosine antibody and blotted for the specific proteins.
(§4) In order to identify the individual proteins whose tyrosine phosphorylation is affected by 2-bromopalmitate, lysates were immunoprecipitated with a panel of specific antibodies, and immunoblotted for phosphotyrosine. Alternatively, lysates were immunoprecipitated with an antiphosphotyrosine antibody, and blotted with antibodies to specific proteins.

[3] = biological target: T1, Fyn (Homo sapiens, UniProt P06241); assay: Fyn fatty acylation (IC13/IC16) in transfected Jurkat T cells; details: 100 μM, 3 hours preincubation
T1 construct: expressed in transfected cells; host or cells: COS-1
Procedure: The syntheses of 13-[^125I]-iodotridecanoic acid (IC13)or 16-[^125I]-iodohexanoic acid (IC16) were carried out as described previously (39). Cell labeling was carried out as described (12,13) with modifications. Briefly, each 60 mm plate of Fyn transfected COS-1 cells was incubated O/N in DMEM containing 2.5% FBS, 0.5% defatted BSA (Sigma) with or without 100 μM 2-bromopalmitate or 50 μM polyunsaturated fatty acid. Prior to labeling, the cells were incubated for 1 hr with 1 ml of DMEM containing 2% dialyzed FBS, then labeled for 4 hours with 25-50 μCi IC13 or IC16 in DMEM containing 2% dialyzed FBS, 0.5% defatted BSA with or without 2-bromopalmitate or polyunsaturated fatty acid. Labeled cells were washed three times with cold STE (100 mM NaCl, 10 mM Tris pH 7.4, 1 mM EDTA) and lysed in 0.6 ml of cold RIPA buffer containing protease inhibitors (10 μg/ml each of benzamidine, AEBSF, TPCK and TLCK, 1.5 μg/ml each of Leupeptin, Pepstatin A and Aprotinin). Lysates were clarified at 100,000×g for 15 min at 4° C. in a Beckman TL-100 ultracentrifuge. […] Gels were dried between cellophane and analyzed by phosphorimaging after 12-36 hours exposure. […]
The Src family kinases Fyn and Lck play critical roles in T cell receptor (TCR) mediated signaling. […] Total protein levels were monitored by immunoprecipitation followed by immunoblotting with anti-Fyn antibody.

[4] = tested on: T cell receptor signaling; assay: TCR-mediated tyrosine phosphorylation in Jurkat T cells (anti-phosphotyrosine immunoblot)
Procedure: as §3
Jurkat cells were incubated with 2-bromopalmitate and activated with OKT3 anti-CD3 antibody. Cell lysates were analyzed by immunoblotting with anti phosphotyrosine antibodies. In control cells, stimulation with OKT3 antibodies induced tyrosine phosphorylation of multiple proteins (Fig 5A). […] The most dramatic effect was on a 36 kDa protein, which represents LAT (see below).

[5] = tested on: Vav; assay: CD3-mediated tyrosine phosphorylation of Vav in Jurkat cells; details: 100 μM 3 hours, OKT3
Procedure: as §3, §4

[6] = tested on: Fyn(16)-eGFP; assay: Localization of Fyn(16)-eGFP in COS-1 cells (fluorescence microscopy, P100/S100 fractionation)
Procedure: COS-1 cells were transfected with a Fyn(16)-eGFP construct (12) and seeded onto 25-mm glass coverslips 2 days prior to the experiment. Cells were treated overnight with or without 2 bromopalmitate as described above. Plates were washed with PBS and coverslips were mounted onto glass slides in PBS and observed with a 40× and 100×oil immersion lens on a Zeiss Axiophot 2 microscope and photographed with Kodak TMAX 400.
To investigate the effect of 2-bromopalmitate on the intracellular localization of Fyn more precisely, COS-1 cells expressing a Fyn(16)-eGFP construct were examined by immunofluorescence. This construct contains the first 16 amino acids of Fyn fused in frame to eGFP; the chimera is targeted to the plasma membrane and detergent resistant microdomains (12). Cells were cultured with no treatment, with 2-bromopalmitate or with 2-hydroxymyristate, a known myristoylation inhibitor (40,41), as described above, and were examined live by fluorescence microscopy.
Analysis of the subcellular localization of Fyn(16)-eGFP in the presence of 2-bromopalmitate and 2-hydroxymyristate was performed as described above for steady-state Fyn. As depicted in FIG. 2B, in the absence of treatment, 80% of Fyn(16)-eGFP Fyn was membrane bound, whereas in cells treated with 2-bromopalmitate and 2-hydroxymyristate, 65% and 78% of Fyn(16)-eGFP were cytosolic, respectively.

[7] = tested on: GαO(10)-Fyn; assay: Membrane binding of Gαo(10)-Fyn chimera in COS-1 cells; details: COS-1, 2-bromopalmitate overnight, 5 min label
Procedure: as §1, §2

T1 sequence (P06241 whole entry, species assumed): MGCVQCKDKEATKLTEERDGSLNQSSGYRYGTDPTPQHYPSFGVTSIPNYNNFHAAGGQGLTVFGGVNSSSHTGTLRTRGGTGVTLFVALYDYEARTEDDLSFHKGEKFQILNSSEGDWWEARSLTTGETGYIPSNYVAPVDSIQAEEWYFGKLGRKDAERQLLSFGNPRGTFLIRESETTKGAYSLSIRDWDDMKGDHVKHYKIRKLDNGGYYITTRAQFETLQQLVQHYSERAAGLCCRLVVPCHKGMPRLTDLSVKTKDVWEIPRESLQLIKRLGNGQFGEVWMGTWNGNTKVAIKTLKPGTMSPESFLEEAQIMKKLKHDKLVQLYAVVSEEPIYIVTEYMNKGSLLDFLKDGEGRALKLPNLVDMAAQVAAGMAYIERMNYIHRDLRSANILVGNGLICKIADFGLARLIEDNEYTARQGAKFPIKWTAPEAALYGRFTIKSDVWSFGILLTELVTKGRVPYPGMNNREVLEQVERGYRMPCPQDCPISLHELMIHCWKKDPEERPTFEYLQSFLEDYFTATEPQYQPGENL

Compound: CCCCCCCCCCCCCCC(Br)C(=O)O (centres unmarked) [2-bromopalmitate]
- inhibition of membrane binding of GAP43(10)-Fyn [1]: to the same extent as wt Fyn
- CD3-mediated tyrosine phosphorylation of LAT [2]: inhibited completely
- Fyn myristoylation inhibited relative to untreated controls ([3]; IC13): 75%
- Fyn palmitoylation inhibited relative to untreated controls ([3]; IC16): 90%
- OKT3-induced tyrosine phosphorylation of several proteins ([4]; 100 μM 3 hours, OKT3 3 min): significantly inhibited
- reduction of tyrosine phosphorylation on the signaling molecules examined, basal activation taken into account ([4]; FIG. 5B): 70-100%
- tyrosine phosphorylation in the presence of 2-bromopalmitate alone (no stimulation), some proteins ([4]; unactivated): Low to moderate increases
- Vav phosphorylation inhibited [5]: 40%
- Fyn(16)-eGFP cytosolic ([6]; COS-1, 100 μM overnight, P100/S100, untreated 80% membrane bound): 65%
- Fyn(16)-eGFP distribution by fluorescence microscopy ([6]; COS-1 live cells, 100 μM overnight): reduced plasma membrane staining
- inhibition of membrane binding of GαO(10)-Fyn [7]: to the same extent as wt Fyn
